According to paper PMC3605638 (The Journal of Biological Chemistry, 2013):

Target: T1, D. discoideum class I RNR (NrdA + NrdB) (Dictyostelium discoideum, UniProt Q54Q71)
T1 sequence (Q54Q71 1-870): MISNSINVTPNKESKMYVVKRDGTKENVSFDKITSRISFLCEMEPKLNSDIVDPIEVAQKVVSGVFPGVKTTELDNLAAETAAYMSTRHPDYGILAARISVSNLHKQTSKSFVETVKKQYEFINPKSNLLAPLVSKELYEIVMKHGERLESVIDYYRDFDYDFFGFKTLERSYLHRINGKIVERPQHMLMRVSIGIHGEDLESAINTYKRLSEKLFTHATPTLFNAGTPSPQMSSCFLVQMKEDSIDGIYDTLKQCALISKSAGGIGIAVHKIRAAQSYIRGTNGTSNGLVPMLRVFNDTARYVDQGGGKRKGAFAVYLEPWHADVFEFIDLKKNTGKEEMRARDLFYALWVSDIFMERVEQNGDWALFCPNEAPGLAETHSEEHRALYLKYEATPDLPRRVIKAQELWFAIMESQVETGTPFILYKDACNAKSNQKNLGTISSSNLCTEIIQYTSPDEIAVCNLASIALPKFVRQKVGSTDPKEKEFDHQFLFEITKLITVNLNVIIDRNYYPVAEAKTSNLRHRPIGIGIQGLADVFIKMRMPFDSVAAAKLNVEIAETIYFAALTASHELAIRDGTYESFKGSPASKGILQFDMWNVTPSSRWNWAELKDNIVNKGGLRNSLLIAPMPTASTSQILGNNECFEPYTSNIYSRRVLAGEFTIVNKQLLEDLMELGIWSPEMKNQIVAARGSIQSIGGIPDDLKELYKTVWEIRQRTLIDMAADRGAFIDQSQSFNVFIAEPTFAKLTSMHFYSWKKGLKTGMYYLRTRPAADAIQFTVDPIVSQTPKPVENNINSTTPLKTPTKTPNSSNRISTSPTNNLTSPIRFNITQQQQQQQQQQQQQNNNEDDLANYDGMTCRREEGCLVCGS
T1 sequence (P42521 1-338 partner): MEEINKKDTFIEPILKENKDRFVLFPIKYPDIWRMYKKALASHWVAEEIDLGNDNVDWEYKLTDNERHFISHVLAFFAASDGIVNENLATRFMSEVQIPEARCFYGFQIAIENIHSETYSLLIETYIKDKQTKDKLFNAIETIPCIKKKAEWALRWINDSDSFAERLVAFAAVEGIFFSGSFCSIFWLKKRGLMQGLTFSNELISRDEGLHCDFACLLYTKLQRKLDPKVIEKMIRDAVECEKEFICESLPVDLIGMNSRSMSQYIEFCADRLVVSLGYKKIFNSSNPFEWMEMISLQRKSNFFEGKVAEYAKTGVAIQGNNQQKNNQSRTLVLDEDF
Assay: radiolabelled GDP reduction assay
Type: biochemical
Conditions: dTTP as effector; 0.7 mM [14C]GDP; labelled compound; pH 7.5, 25 °C

`Nc1nc2c(ncn2[C@@H]2O[C@H](COP(=O)(O)OP(=O)(O)O)[C@@H](O)[C@H]2O)c(=O)[nH]1` [GDP] was tested, and the “radiolabelled GDP reduction assay” value was “characterized in vitro with CDP or GDP as substrate”.
